Assay results from PubChem BioAssay (NCI).
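Cultured in 96-well plates, cells were exposed to test compound for 48 hours across five concentrations. TGI denotes the concentration required for complete inhibition of growth.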

Legend:
Assay in all cases: NCI-60 cell line screen, 48 h
[1] = system: NCI-H226 lung
[2] = system: IGROV1 ovarian
[3] = system: SNB-75 CNS
[4] = system: COLO 205 colon
[5] = system: UACC-257 melanoma
[6] = system: SNB-19 CNS
[7] = system: U251 CNS
[8] = system: HCT-15 colon
[9] = system: ACHN renal
[10] = system: OVCAR-3 ovarian
[11] = system: SW-620 colon
[12] = system: A498 renal
[13] = system: DU-145 prostate
[14] = system: HCT-116 colon
[15] = system: CAKI-1 renal
[16] = system: BT-549 breast
[17] = system: MCF7 breast
[18] = system: MALME-3M melanoma
[19] = system: SN12C renal
[20] = system: EKVX NSCLC
[21] = system: RPMI-8226 leukemia
[22] = system: KM12 colon
[23] = system: SR leukemia
[24] = system: LOX IMVI melanoma
[25] = system: OVCAR-4 ovarian
[26] = system: UO-31 renal
[27] = system: 786-0 renal
[28] = system: MDA-MB-231 breast
[29] = system: HOP-62 NSCLC
[30] = system: TK-10 renal
[31] = system: HCC-2998 colon
[32] = system: RXF 393 renal
[33] = system: HT29 colon
[34] = system: UACC-62 melanoma
[35] = system: HS 578T breast
[36] = system: OVCAR-5 ovarian
[37] = system: K-562 leukemia
[38] = system: NCI-H522 lung
[39] = system: NCI-H460 lung
[40] = system: M14 melanoma
[41] = system: CCRF-CEM leukemia
[42] = system: SK-OV-3 ovarian
[43] = system: T-47D breast
[44] = system: MDA-MB-435
[45] = system: SK-MEL-28 melanoma
[46] = system: SF-268 CNS
[47] = system: SK-MEL-2 melanoma
[48] = system: OVCAR-8 ovarian
[49] = system: MDA-N
[50] = system: MOLT-4 leukemia
[51] = system: SF-295 CNS
[52] = system: SK-MEL-5 melanoma
[53] = system: A549 NSCLC
[54] = system: PC-3 prostate
[55] = system: NCI/ADR-RES ovarian
[56] = system: HL-60(TB) leukemia
[57] = system: NCI-H23 lung
[58] = system: SF-539 CNS
[59] = system: HOP-92 NSCLC

Measured: TGI

CN=C1Nc2ccccc2C(=O)N2CSCC12 (stereo not given)
not listed: [56] | [57] | [58] | [59]
> 100 µM: all other assays above

CCOC(=O)Cc1c(C)c2cc(C(=O)c3ccccc3)c(O)cc2oc1=O
63.9 µM: [17]
40 µM: [52]
71.8 µM: [37]
72 µM: [28]
74.7 µM: [3]
80.1 µM: [5]
58.3 µM: [58]
74.2 µM: [7]
62.1 µM: [18]
68.7 µM: [38]
53.8 µM: [10] | [56]
58.8 µM: [59]
81.2 µM: [54]
80.2 µM: [12]
46.6 µM: [57]
97.1 µM: [35]
59.8 µM: [16]
37.2 µM: [4]
40.2 µM: [47]
84.9 µM: [46]
91.3 µM: [53]
88.9 µM: [20]
73.3 µM: [55]
88.3 µM: [43]
not listed: [22] | [23] | [26] | [42]
> 100 µM: all other assays above
